Results from patent publication EP4759805A1, “NLRP3 INFLAMMASOME INHIBITOR AND USE THEREOF” (NEUROCRINE BIOSCIENCES, INC., priority 2023, dated 2025).
pIC50: −log10 of the molar value.

target: T1, NLRP3 inflammasome (Homo sapiens, UniProt Q96P20); assay: Cell assay of inhibitory activity against NLRP3 inflammasome in THP-1 cells (LPS/nigericin stimulation, caspase-1 glo readout); assay type: cell-based; conditions: PMA-differentiated THP-1 cells; LPS 500 ng/ml 3 h, compound 1 h, nigericin 10 µg/ml 30 min; active caspase-1 in supernatant
T1 construct: endogenous in cells; host or cells: THP-1 cells (PMA-differentiated, LPS-primed, nigericin-stimulated)
T1 sequence (Q96P20 whole entry): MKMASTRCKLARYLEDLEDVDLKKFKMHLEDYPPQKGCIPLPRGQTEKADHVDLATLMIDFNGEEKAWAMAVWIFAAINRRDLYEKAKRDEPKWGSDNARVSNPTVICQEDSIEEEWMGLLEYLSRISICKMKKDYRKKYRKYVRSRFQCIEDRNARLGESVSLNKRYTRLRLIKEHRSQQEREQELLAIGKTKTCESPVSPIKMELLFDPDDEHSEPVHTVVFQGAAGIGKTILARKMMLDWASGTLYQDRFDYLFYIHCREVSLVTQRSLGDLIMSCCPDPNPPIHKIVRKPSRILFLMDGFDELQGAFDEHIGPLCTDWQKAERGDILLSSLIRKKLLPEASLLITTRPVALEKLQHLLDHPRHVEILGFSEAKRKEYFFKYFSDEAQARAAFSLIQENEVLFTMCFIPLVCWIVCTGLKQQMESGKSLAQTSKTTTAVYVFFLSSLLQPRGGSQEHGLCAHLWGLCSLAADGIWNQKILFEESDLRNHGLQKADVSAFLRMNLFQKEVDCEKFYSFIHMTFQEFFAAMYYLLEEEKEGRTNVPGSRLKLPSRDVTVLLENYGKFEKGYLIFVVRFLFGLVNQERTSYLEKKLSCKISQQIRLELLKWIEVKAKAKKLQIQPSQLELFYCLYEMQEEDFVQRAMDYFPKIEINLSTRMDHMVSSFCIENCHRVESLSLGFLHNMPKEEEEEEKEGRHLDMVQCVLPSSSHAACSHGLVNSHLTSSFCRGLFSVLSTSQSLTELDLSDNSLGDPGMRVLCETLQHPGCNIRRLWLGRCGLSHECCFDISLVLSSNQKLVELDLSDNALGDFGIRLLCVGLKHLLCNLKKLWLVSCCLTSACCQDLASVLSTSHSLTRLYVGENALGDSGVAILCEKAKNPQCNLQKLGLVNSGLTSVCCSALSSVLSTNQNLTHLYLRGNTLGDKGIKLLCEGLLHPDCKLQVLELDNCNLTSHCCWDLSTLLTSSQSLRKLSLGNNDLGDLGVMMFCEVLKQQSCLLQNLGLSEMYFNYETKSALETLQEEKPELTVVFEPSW
Description: Experimental Example 1: Cell assay of inhibitory activity of the compounds of the present disclosure against NLRP3 inflammasome
Test compounds: the compounds of the present disclosure prepared in accordance with the methods described in the Examples
THP-1 was an immortalized human macrophage cell line.
Test instrument: Microplate reader (manufactured by PE)
• 1. THP-1 cells were cultured in 1640 complete medium (500 ml 1640+56 ml FBS+560 µl 1000× P/S+2 µl mercaptoethanol), and used within 3 to 20 passages. • 2. Coating of culture plates: 100 µl of polylysine solution was added into a 96-well cell culture plate and incubated at 37°C for 30min. The solution was discarded, and the plate was washed twice with PBS for later use. • 3. Induction of differentiation of THP-1: THP-1 cells were resuspended in an appropriate amount of complete medium containing 10 ng/ml PMA to achieve a cell density of 5×10^5 cells /ml in the suspension. The cell suspension was added into a 96-well plate with 100 µl of cell suspension per well, and the 96-well plate was cultured overnight for 16 hours in a 37°C CO2 cell incubator. • 4. Stimulation of THP-1: • a. Serum-free THP-1 culture medium containing LPS was added to achieve a final concentration of 500 ng/ml, and the resultant was cultured in a 37°C CO2 cell incubator for 3h; • b. The compounds to be tested were prepared into stock solutions at gradient concentrations with DMSO. The resulting solutions were added to the cells, evenly mixed, and finally diluted at 1:1000. The 96-well plate was cultured in a 37°C CO2 cell incubator for 1h. • c. Nigericin was added to each well to achieve a final concentration of 10 µg/ml, and the resultant was cultured in a 37°C CO2 cell incubator for 30 min. • d. The resulting culture medium in each well was transferred to a new culture plate, which was then centrifuged at 3000 rpm for 5min. Afterwards, the supernatant was transferred to a new 96-well plate. • e. The collected supernatant samples of the cell culture medium were determined by using a commercial caspase-1 glo kit, and the content of human active caspase-1 was determined according to the manufacturer's instructions.

Row | pIC50 | SMILES
1 | 7.78 | C#Cc1ccc(-c2nnc(NC(=O)CNC)cc2C)c(O)c1 [Compound 1, N-(6-(4-ethynyl-2-hydroxyphenyl)-5-methylpyridazin-3-yl)-2-(methylamino)acetamide]
2 | 7.74 | C#Cc1ccc(-c2nnc(NC(=O)CNCC)cc2C)c(O)c1 [Compound 2, N-(6-(4-ethynyl-2-hydroxyphenyl)-5-methylpyridazin-3-yl)-2-(ethylamino)acetamide]
3 | 7.49 | C#Cc1ccc(-c2nnc(NC(=O)CNC(C)C)cc2C)c(O)c1 [Compound 3, N-(6-(4-ethynyl-2-hydroxyphenyl)-5-methylpyridazin-3-yl)-2-(isopropylamino)acetamide]
4 | 8.89 | C#Cc1ccc(-c2nnc(NC(=O)CNC)cc2C2CC2)c(O)c1 [Compound 7, N-(5-cyclopropyl-6-(4-ethynyl-2-hydroxyphenyl)pyridazin-3-yl)-2-(methylamino)acetamide]
5 | 8.85 | C#Cc1ccc(-c2nnc(NC(=O)CNCC)cc2C2CC2)c(O)c1 [Compound 8, N-(5-cyclopropyl-6-(4-ethynyl-2-hydroxyphenyl)pyridazin-3-yl)-2-(ethylamino)acetamide]
6 | 8.01 | C#Cc1ccc(-c2nnc(NC(=O)CNC(C)C)cc2C2CC2)c(O)c1 [Compound 9, N-(5-cyclopropyl-6-(4-ethynyl-2-hydroxyphenyl)pyridazin-3-yl)-2-(isopropylamino)acetamide]
7 | 7.72 | C#Cc1ccc(-c2nnc(NC(=O)CNC3CC3)cc2C2CC2)c(O)c1 [Compound 10, N-(5-cyclopropyl-6-(4-ethynyl-2-hydroxyphenyl)pyridazin-3-yl)-2-(cyclopropylamino)acet amide]
8 | 7.63 | C#Cc1ccc(-c2nnc(NC(=O)CN)cc2C2CC2)c(O)c1 [Compound 13, 2-amino-N-(5-cyclopropyl-6-(4-ethynyl-2-hydroxyphenyl)pyridazin-3-yl)acetamide]
9 | 8.07 | C#Cc1ccc(-c2nnc(NC(=O)CNC)cc2C(C)C)c(O)c1 [Compound 16, N-(6-(4-ethynyl-2-hydroxyphenyl)-5-isopropylpyridazin-3-yl)-2-(methylamino)acetamide]
10 | 7.75 | CNCC(=O)Nc1cc(C)c(-c2ccc(C(F)(F)F)cc2O)nn1 [Compound 17, N-(6-(2-hydroxy-4-(trifluoromethyl)phenyl)-5-methylpyridazin-3-yl)-2-(methylamino)acet amide]
11 | 8.47 | CNCC(=O)Nc1cc(C(C)C)c(-c2ccc(C(F)(F)F)cc2O)nn1 [Compound 19, N-(6-(2-hydroxy-4-(trifluoromethyl)phenyl)-5-isopropylpyridazin-3-yl)-2-(methylamino)a cetamide]
12 | 9.52 | CNCC(=O)Nc1cc(C2CC2)c(-c2ccc(C(F)(F)F)cc2O)nn1 [Compound 20, N-(5-cyclopropyl-6-(2-hydroxy-4-(trifluoromethyl)phenyl)pyridazin-3-yl)-2-(methylamino)acetamide]
13 | 7.88 | C#Cc1ccc(-c2nnc(NC(=O)CNC3CCC3)cc2C)c(O)c1 [Compound 31, N-(6-(4-ethynyl-2-hydroxyphenyl)-5-methylpyridazin-3-yl)-2-(cyclobutylamino)acetamide]
14 | 7.84 | C#Cc1ccc(-c2nnc(NC(=O)CNC3CC(O)C3)cc2C2CC2)c(O)c1 (stereo not shown) [Compound 33, N-(5-cyclopropyl-6-(4-ethynyl-2-hydroxyphenyl)pyridazin-3-yl)-2-((3-hydroxycyclobutyl)amino)acetamide]
15 | 8.54 | C#Cc1ccc(-c2nnc(NC(=O)[C@@H](C)NC)cc2C2CC2)c(O)c1 [Compound 36, (R)-N-(5-cyclopropyl-6-(4-ethynyl-2-hydroxyphenyl)pyridazin-3-yl)-2-(methylamino)prop anamide]
16 | 7.53 | C#Cc1ccc(-c2nnc(NC(=O)[C@H](C)NC)cc2C2CC2)c(O)c1 [Compound 37, (S)-N-(5-cyclopropyl-6-(4-ethynyl-2-hydroxyphenyl)pyridazin-3-yl)-2-(methylamino)prop anamide]
17 | 7.67 | C#Cc1ccc(-c2nnc(NC(=O)[C@H]3CCCN3)cc2C2CC2)c(O)c1 [Compound 43, (R)-N-(5-cyclopropyl-6-(4-ethynyl-2-hydroxyphenyl)pyridazin-3-yl)pyrrolidine-2-carboxamide]

Row | pIC50 | SMILES
18 | 8.19 | C#Cc1ccc(-c2nnc(NC(=O)[C@@H](C)N)cc2C2CC2)c(O)c1 [Compound 44, (R)-2-amino-N-(5-cyclopropyl-6-(4-ethynyl-2-hydroxyphenyl)pyridazin-3-yl)propanamide]
19 | 8.17 | C[C@@H](N)C(=O)Nc1cc(C2CC2)c(-c2ccc(C(F)(F)F)cc2O)nn1 [Compound 50, (R)-2-amino-N-(5-cyclopropyl-6-(2-hydroxy-4-(trifluoromethyl)phenyl)pyridazin-3-yl)pro panamide]
20 | 7.84 | C#Cc1ccc(-c2nnc(NC(=O)[C@H](N)COC)cc2C2CC2)c(O)c1 [Compound 51, (R)-2-amino-N-(5-cyclopropyl-6-(4-ethynyl-2-hydroxyphenyl)pyridazin-3-yl)-3-methoxyp ropanamide]
21 | 7.89 | C#Cc1ccc(-c2nnc(NC(=O)[C@H](N)Cc3ccccc3)cc2C2CC2)c(O)c1 [Compound 52, (R)-2-amino-N-(5-cyclopropyl-6-(4-ethynyl-2-hydroxyphenyl)pyridazin-3-yl)-3-phenylpro panamide]
22 | 8.23 | C#Cc1ccc(-c2nnc(NC(=O)[C@H](N)C3CC3)cc2C2CC2)c(O)c1 [Compound 53, (R)-2-amino-2-cyclopropyl-N-(5-cyclopropyl-6-(4-ethynyl-2-hydroxyphenyl)pyridazin-3-yl)acetamide]
23 | 7.63 | C#Cc1ccc(-c2nnc(NC(=O)[C@H](N)CO)cc2C2CC2)c(O)c1 [Compound 55, (R)-2-amino-N-(5-cyclopropyl-6-(4-ethynyl-2-hydroxyphenyl)pyridazin-3-yl)-3-hydroxypr opanamide]
24 | 8.15 | C#Cc1ccc(-c2nnc(NC(=O)[C@H](N)C(C)C)cc2C2CC2)c(O)c1 [Compound 56, (R)-2-amino-N-(5-cyclopropyl-6-(4-ethynyl-2-hydroxyphenyl)pyridazin-3-yl)-3-methylbut anamide]
25 | 7.76 | C#Cc1ccc(-c2nnc(NC(=O)[C@H](N)[C@H](C)O)cc2C2CC2)c(O)c1 [Compound 57, (2R, 3S)-2-amino-N-(5-cyclopropyl-6-(4-ethynyl-2-hydroxyphenyl)pyridazin-3-yl)-3-hydroxyb utanamide]
26 | 7.49 | C#Cc1ccc(-c2nnc(NC(=O)[C@H](N)[C@@H](C)O)cc2C2CC2)c(O)c1 [Compound 59, (2R,3R)-2-amino-N-(5-cyclopropyl-6-(4-ethynyl-2-hydroxyphenyl)pyridazin-3-yl)-3-hydro xybutanamide]
27 | 7.49 | CNCC(=O)Nc1nnc(-c2ccc(C(F)(F)F)cc2O)c(C2CC2)n1 [Compound 60, N-(5-cyclopropyl-6-(2-hydroxy-4-(trifluoromethyl)phenyl)-1,2,4-triazin-3-yl)-2-(methylamino)acetamide]
28 | 8.21 | CNCC(=O)Nc1cc(C2CCC2)c(-c2ccc(C(F)(F)F)cc2O)nn1 [Compound 61, N-(5-cyclobutyl-6-(2-hydroxy-4-(trifluoromethyl)phenyl)pyridazin-3-yl)-2-(methylamino) acetamide]
29 | 7.68 | C#Cc1ccc(-c2nnc(NC(=O)CNC)cc2C2CCC2)c(O)c1 [Compound 62, N-(5-cyclobutyl-6-(4-ethynyl-2-hydroxyphenyl)pyridazin-3-yl)-2-(methylamino)acetamide]
30 | 8.14 | C[C@@H](N)C(=O)Nc1cc(C2CCC2)c(-c2ccc(C(F)(F)F)cc2O)nn1 [Compound 63, (R)-2-amino-N-(5-cyclobutyl-6-(2-hydroxy-4-(trifluoromethyl)phenyl)pyridazin-3-yl)prop anamide]
31 | 7.85 | CC(C)c1cc(NC(=O)[C@@H](C)N)nnc1-c1ccc(C(F)(F)F)cc1O [Compound 64, (R)-2-amino-N-(6-(2-hydroxy-4-(trifluoromethyl)phenyl)-5-isopropylpyridazin-3-yl)propa namide]
32 | 7.50 | C#Cc1ccc(-c2nnc(NC(=O)[C@@H](C)N)cc2C2CCC2)c(O)c1 [Compound 65, (R)-2-amino-N-(5-cyclobutyl-6-(4-ethynyl-2-hydroxyphenyl)pyridazin-3-yl)propanamide]
33 | 7.86 | C#Cc1ccc(-c2nnc(NC(=O)[C@@H](C)N)cc2C(C)C)c(O)c1 [Compound 66, (R)-2-amino-N-(6-(4-ethynyl-2-hydroxyphenyl)-5-isopropylpyridazin-3-yl)propanamide]

Row | SMILES | pIC50
34 | C#Cc1ccc(-c2nnc(NC(=O)CNCC3CC3)cc2C)c(O)c1 [Compound 34, N-(6-(4-ethynyl-2-hydroxyphenyl)-5-methylpyridazin-3-yl)-2-((cyclopropylmethyl)amino) acetamide] | 7.73
